Source: the supplement of paper PMC8882468
± gives the standard deviation of the averaged measurements.

Legend:
Test in all cases: CTG-3D luminescence at 96 h relative to day-0 seeding control (ratio to day 0); higher = more growth / less cytotoxicity; PDxO 3D drug screen (set 2), 96 h, CTG-3D normalised to day-0 seeding control.
[1] = system: HCI-003.E2 (organoid from an ER-positive breast cancer xenograft)
[2] = system: HCI-010 (organoid from a breast cancer xenograft)
[3] = system: HCI-027 (organoid from a triple-negative breast cancer xenograft)
[4] = system: HCI-012 (organoid from a breast cancer xenograft)
[5] = system: HCI-011.E2 (organoid from an ER-positive breast cancer xenograft)

CC(=O)c1c(C)c2cnc(Nc3ccc(N4CCNCC4)cn3)nc2n(C2CCCC2)c1=O [palbociclib]
CTG-3D luminescence at 96 h
Conditions | 12.5 pM | 0.00025 µM | 0.005 µM | 0.1 µM | 1 µM | 10 µM | 100 µM | 625 fM
[1] | 2.52 ± 0.43 | 2.44 ± 0.46 | 2.53 ± 0.76 | 2.82 ± 0.78 | 2.21 ± 0.33 | 1.92 ± 0.12 | 0.594 ± 0.47 | 2.88 ± 0.87
[5] | 1.41 ± 0.057 | 1.8 ± 0.18 | 1.29 ± 0.083 | 1.53 ± 0.05 | 1.49 ± 0.048 | 1.92 ± 0.39 | 1.44 ± 0.12 | 1.86 ± 0.15

CTG-3D luminescence at 96 h
Conditions | 12.5 pM | 0.00025 µM | 0.005 µM | 0.1 µM | 1 µM | 10 µM | 100 µM | 625 fM
[2], days in culture: 79 | 1.68 | 1.69 | 1.79 | 1.9 | 1.71 | 1.47 | 0.772 | 1.88
[2], days in culture: 86 | 2.36 | 2.42 | 2.72 | 2.52 | 2.49 | 2.34 | 1.26 | 2.21
[2], days in culture: 102 | 1.09 | 1.35 | 1.2 | 1.65 | 1.56 | 1.54 | 0.787 | 1.15
[2], days in culture: 164 | 1.31 | 1.57 | 1.74 | 1.67 | 1.73 | 1.25 | 0.562 | 1.37
[3], days in culture: 145 | 1.41 | 2.02 | 1.64 | 1.26 | 1.55 | 0.841 | 0.458 | 1.58
[3], days in culture: 158 | 1.35 | 1.77 | 2.1 | 1.52 | 0.941 | 0.942 | 0.608 | 3.32
[3], days in culture: 164 | 2.57 | 1.87 | 1.48 | 1.63 | 1.33 | 1.31 | 0.892 | 2.8
[3], days in culture: 176 | 3.61 | 2.85 | 1.73 | 2.1 | 1.82 | 0.641 | 0.373 | 2.61
[3], days in culture: 186 | 1.11 | 1.93 | 2.5 | 2.42 | 0.412 | 1.4 | 0.411 | 1.67
[4], days in culture: 214 | 2.51 | 1.31 | 1.58 | 1.96 | 2.63 | 2.66 | 0.494 | 1.78
[4], days in culture: 243 | 2.23 | 2.46 | 1.58 | 2.71 | 2.27 | 2.37 | 1.29 | 3.76
[4], days in culture: 256 | 1.88 | 2.23 | 1.63 | 3.14 | 2.13 | 1.8 | 0.605 | 2.46
[4], days in culture: 284 | 1.65 | 2.5 | 2.04 | 2.56 | 1.9 | 2.78 | 0.731 | 4.06
[5], days in culture: 74 | 2.34 | 2.11 | 2.43 | 2.43 | 1.74 | 2.51 | 1.52 | 2.09
